In a melting point compilation (Tetko et al.; mined from patent text by program, amines drawn as free bases though some values may be those of a salt):

melting point [°C] | SMILES
229 to 232 | O=C(Nc1cccc([N+](=O)[O-])c1)c1ccc([N+](=O)[O-])cc1
272 to 273 | CNc1cc(NS(=O)(=O)c2ccc(Cl)cc2)nc(NC)n1
255 to 257 | CCOC(=O)Cc1c[nH]c2nc(Nc3ccccc3)nn2c1=O
128 to 129 | CCCCc1nc2cccc(C(=O)OC)c2n1Cc1ccc(-n2cccc2C#N)cc1
145 | CC1(C)CCC(C)(C)c2cc(C(=O)c3ccccc3C=O)ccc21
141 to 142 | CC(C)C[C@@H]1NC(=O)[C@@H]1O
194 | c1ccc2c(c1)C[C@H]1CSC(=Nc3cccc4ncccc34)N1C2
126 | COCCOc1ccc(CCCNS(=O)(=O)c2ccccc2[N+](=O)[O-])c(Oc2ncc(C(F)(F)F)cc2Cl)c1
161 to 165 | CN(O)C(=O)C(=O)c1ccc(OCCOc2ccc3ccccc3c2)cc1
151 | COC(=O)c1cc(C(=O)c2ncc3ccccn23)ccc1[N+](=O)[O-]
172 to 174 | CCOC(=O)C1=NOC(c2ccc(NC(=O)c3c(I)cccc3C(=O)NC(C)C)c(C)c2)(C(F)(F)F)C1 (stereo not given)
64 to 66 | COC(=O)c1scc(-c2ccccc2)c1N
152 to 153 | Cc1ccccc1CCC(=O)NCc1ncc(C(F)(F)F)cc1Cl
117 to 118 | CC(=O)NCCCc1ccc(CN2CCN(c3ccccc3)CC2)cc1
142 to 144 | NC(=O)CCC1OC(=O)NC1c1cc(F)c(-n2nnc(Cc3cccs3)n2)c(F)c1 (stereo not given)
131 to 132 | CC(Cc1cc([N+](=O)[O-])cc2ccoc12)NC(=O)OC(C)(C)C (stereo not given)
120 to 122 | O=C1c2ccccc2C(=O)N1CCS(=O)(=O)CCO
74.4 | CC(C)(C)OC(=O)NCc1ccc(N)cc1
136 to 137 | CCC(CC)c1ccc(C#N)c2nc(Oc3ccc(Cl)cc3Br)n(C)c12
53 | COC(=O)CCSC(SCCC(=O)OC)c1cccc(C=Cc2ccc3ccc(Cl)cc3n2)c1
66 | CCO[C@H](C(=O)N1C(=O)OC[C@@H]1Cc1ccccc1)[C@H](O)c1ccc2oc(Cc3nc(-c4ccccc4)oc3C)cc2c1
224 | O=C(NOC1CCCCO1)c1ccc(C(=O)Nc2cccc(Nc3nc(-c4cccnc4)cs3)c2)cc1 (stereo not given)
139 to 140 | CCN1C(=O)C(C)(C)C(=O)N(C)c2cc(CN(CCn3ccc4sccc4c3=O)Cc3cccnc3C)ccc21

melting point [°C] | SMILES
153 to 155 | Cc1cc(-c2ccc(-c3ccco3)cc2)n(-c2ccc(S(N)(=O)=O)cc2)c1
127 to 129 | CC(=O)OCC1OC(n2cc(C3=C(c4c[nH]c5ncccc45)C(=O)N(COCc4ccccc4)C3=O)c3cccnc32)C(OC(C)=O)C(OC(C)=O)C1OC(C)=O (stereo not given)
190 to 191 | COc1cc(OCCN2CCCC2)c2c(=O)[nH]c(-c3cc(C)nc(C)c3)nc2c1
179 to 181 | CC1(C)OC(=O)C(Cc2c[nH]c3ccc(Br)cc23)C(=O)O1
160 to 162 | CN(C)Cc1cccc(-c2csc(N=C(N)N)n2)n1
144 to 146 | CC(C)(Sc1nc2ccccc2cc1-c1ccccc1)C(=O)O
137 to 140 | Nc1sc2c(c1C(=O)c1cccc3ccccc13)CCCC2
165 to 167 | NC(=O)N(O)CCNC(=O)CCc1ccccc1
116 to 117 | CC(C)(C)OCC(NC(=O)c1ccc2c(Cl)cnc(Cl)c2c1)C(=O)OC(C)(C)C (racemic)
219 to 223 | O=C(O)Cc1c(C(=O)O)c2cc(Oc3cc(Cl)cc(Cl)c3)ccc2n1-c1ccc(OC(F)(F)F)cc1
114 | FC(F)(F)CO[Si](c1ccccc1)(c1ccccc1)c1ccccc1
228 to 230 | Nc1cc(Cl)c(Br)cc1C(=O)O
192 to 193 | CC(=O)NC[C@H]1CN(c2ccc(-c3noc(C(F)(F)F)n3)c(F)c2)C(=O)O1
69 to 71 | CCC(CC)CCOCCCCCCNCC(O)c1ccc(O)c(NS(C)(=O)=O)c1 (stereo not given)
205 to 208 | O=C(O)c1nn(CCCCCCl)c2c1CCc1cc(Cl)sc1-2
146 to 147 | O=C1c2ccccc2COc2ccc(CCC(=O)N(O)C3CCCCC3)cc21
102 | CCCC(C)(O)C(=O)Nc1ccnc(Br)c1 (stereo not given)
192 to 193 | CCCCNC(=O)C(Cc1ccccc1)NC(=O)c1cc2cc(Cl)ccc2[nH]1 (stereo not given)
109 | COCC(O)c1cccc(S(N)(=O)=O)c1 (stereo not given)
189 | Fc1ccc(-c2nc3ccccn3c2-c2ccnc(-c3ccc(CN4CCOCC4)cc3)c2)cc1Cl
92 to 95 | CON(C)C(=O)CNC(=O)OC(C)(C)C
143 to 144 | CS(=O)(=O)Nc1cc2c(cc1Oc1ccccc1)C(=O)CCO2
175 to 178 | Cc1cc(-c2ccc(N(c3ccccc3)c3ccccc3)c(C)c2)ccc1N(c1ccccc1)c1ccccc1

melting point [°C] | SMILES
178 | Cc1ccc(C(OS(=O)(=O)c2c(C)cc(C)c(S(=O)(=O)OC(c3ccc(C)cc3)(C(F)(F)F)C(F)(F)F)c2C)(C(F)(F)F)C(F)(F)F)cc1
249 to 251 | COC(=O)c1ccc(Cc2cn(C)c3ccc(C(=O)O)cc23)c(OC)c1
197 to 198 | CC1(C)CN(C2CC3(C)C(CCC4C5CCC(C(=O)CSC#N)C5(C)CC(=O)C43)CC2O)CCO1 (stereo not given)
> 270 | Oc1cc2cc3c(ccc4cc(O)c(O)cc43)nc2cc1O
112 to 115 | CN(CCOc1ccc2c(c1)OC(C)(C)C=C2c1ccc2ccccc2c1)Cc1ccccc1
115 to 118 | COC(=O)Cc1ccccc1S(=O)(=O)NC(=O)Nc1nc(Cl)cc(Cl)n1
161 to 163 | CC(C)(C)Nc1nc(N)nc2c1ncn2C1C=CC(CO)C1 (stereo not given)
221 to 222 | OCC1CC(n2c(N3CCC3)nc3cc(Cl)c(Cl)cc32)C(O)C1O (stereo not given)
66 to 67 | N#CCSc1cc(F)cc(F)c1N
250 to 251 | Cc1nn(C)c2c(=O)n(-c3ccc(Cl)c(Cl)c3)cnc12
68 to 71 | COC(=O)c1c(F)cc(OCCNC(=O)C2Cc3ccccc3N2S(=O)(=O)c2ccc(-c3cccc(C(F)(F)F)c3)cc2)cc1F (stereo not given)
156 to 157 | CCOc1cc2cc(CO)c(CO)c(-c3ccnc(Br)c3)c2cc1OC
147 to 148 | O=Cc1cc(O)c(OCc2ccccc2)cc1O
35 to 36 | C=CCOC(=O)CCCCCCCCCCCCCCCCC
183 to 184 | Cc1nc(N2CCN(Cc3ccc(F)cc3)C2=O)sc1C(=O)NCCN1CCCC1
109 to 111 | CC(Oc1ccc(F)cc1F)(C(=O)Nc1nc(CC(=O)O)c(Cl)s1)c1ccc(S(C)(=O)=O)cc1 (stereo not given)
142 to 143 | CC(C)(C)OC(=O)NN(Cc1ccccc1)C[C@H](O)[C@H](Cc1ccccc1)NC(=O)OCc1ccccc1
170 to 172 | CC(=O)C1Cc2cc(CCN3CCC(c4noc5cc(F)ccc45)CC3)sc2CN1 (stereo not given)
181 to 183 | NC(=S)NN=C(CCC(=O)N1CCCCC1)c1ccccc1
59 to 61 | CSCCOc1ccc(OCC(O)CO)cc1 (stereo not given)
80 to 80.5 | O=C1CC(OC(CBr)CBr)N1 (stereo not given)
144 | CC(=O)Nc1ccc(-c2cc(C(=O)c3cccnc3)sc2N2CCOCC2)cc1
137 to 139 | CCOC(=O)c1cc(=O)c2c(OCC(O)COc3ccc(C#N)cc3)cccc2o1 (stereo not given)

melting point [°C] | SMILES
146 to 147 | O=C(NC1CCN(CCCOC(=O)c2ccccc2)CC1)c1ccccc1
104 to 108 | CN(C)c1ccc(C(=O)C(F)(F)c2cccc(Cl)c2)cc1
243 to 245 | Cn1ncc(C(=O)N2CCC2)c1C(=O)Nc1ccn2nc(-c3ccccc3)nc2c1
61 to 63 | CCOC(=O)CN1CCC(CNc2ccc(Cl)cc2C(=O)Nc2ccc(Cl)cn2)CC1
77 to 78 | CC(C)Oc1cccc2c1O[C@@H](COS(C)(=O)=O)CC2
200 to 201 | Cc1ncc(C#N)c(Nc2ccc3[nH]ccc3c2C)c1-c1ccc(OCCCl)cc1
136 to 138 | Clc1ccc(N2CCN(Cc3cn4cc(Cl)ccc4n3)CC2)c(Cl)c1
125 to 126 | Cc1nc(CNc2c(C)cccc2C)n[nH]1
99 to 110 | CCCN(CCCCc1coc2c(OC)cccc12)C1COc2c(F)ccc(C(N)=O)c2C1 (stereo not given)
165 to 175 | CCOC(=O)NS(=O)(=O)c1ccc(C(=O)C=Cc2cc(-c3cc4ccccc4[nH]3)c(OC)cc2OC)cc1
193 to 194 | O=C(CCl)Nc1ccc2c(c1NC(=O)c1ccccc1Cl)C(=O)c1ccccc1C2=O
133 to 135 | CCOC(=O)C(=O)Nc1cccc(N(C)C)c1C(N)=O
198 to 200 | Cc1cccc(-c2ccc(C(=O)O)cc2)c1
86 | Cc1ccc2cc(-c3ccc(F)cc3F)ccc2n1
222 | COc1cc(F)ccc1Nc1ccc2c(c1)OCc1cc([N+](=O)[O-])ccc1C2=O
100 to 102 | CC(C)(C)c1cc(-c2nc(C(Cl)(Cl)Cl)no2)cc(C(C)(C)C)c1O
124 to 127 | CC(C)(C)OC(=O)CCN(CCC12CC3CC(CC(C3)C1)C2)C(=O)NCCCc1ccncc1
158 to 178 | COC(=O)c1sccc1S(=O)(=O)NC(=O)Nc1nc(C)nc(C)n1
218 to 220 | CC(=O)NC[C@H]1CN(c2ccc(C(=O)c3cnc4ccccn34)cc2)C(=O)O1
123 to 124 | CCC1(Cl)Cc2cc(OCCCC(=O)O)c(Cl)c(Cl)c2C1=O (stereo not given)
157 to 158 | CN(c1ccc(Cl)cc1)S(=O)(=O)c1cccc(C(=O)Nc2ccc(Cl)cc2C#N)c1

SMILES | melting point [°C]
COc1ccc2ccc(N3C(=O)c4ccccc4C3OC(=O)N3CCN(C)CC3)nc2n1 (stereo not given) | 218
O=C1C2CCCC1CN(Cc1ccccc1)C2 | 48 to 50.5
C=CCN(CC=C)Cc1nc(-c2ncn3c2[C@@H]2CCN2C(=O)c2cc(F)ccc2-3)no1 | 100 to 105
CNC(=O)c1cc(C#N)cc(Cl)c1NC(=O)c1cc(Cl)nn1-c1ncccc1Cl | 197 to 200
O=C(Nc1ccc(N(CCCl)CCCl)cc1)Nc1c2ccccc2nc2ccccc12 | 184 to 186
